US6063777A, “Iminochlorinaspartic acid derivatives” (Wyeth Lederle Japan, Ltd., priority 1996, dated 2000)
Converted amounts (≈) assume the structure as drawn.

Key:
[1] = Laser irradiation to extirpated organ: distribution (cancer/organ ratio) by surface fluorescence, N2-pulsed laser, mice bearing Colon 26; assay type: in vivo, CDF1 mice; conditions: mouse, tumor/plasma, sodium salt, 10 mg/kg intravenous
Description: CDF1 mice (5 per group) were implanted with tumor tissues of colon cancer Colon 26. Two weeks after the implantation, the mice were given an intravenous injection of sodium salt of each of compounds (I) and (II) (10 mg/kg for each mouse) which had been diluted with a distilled water for injection. At 3 hrs, 6 hrs and 12 hrs after the injection, the blood samples were collected and the organs bearing the tumor tissue were extirpated, irradiated with N2 -pulsed laser (N2, wavelength: 337 nm, 2 ns), and the excited fluorescent spectrum was measured. The wavelengths in the range of 600 to 900 nm were examined based on the peak wavelength of NADH at 470 nm (determination of the distribution of the test compound in the organ by the surface fluorescence method using N2 -pulsed laser spectrophotometry). That is, cancer/organ (or plasma) ratio was determined by calculating the peak wavelength in the range of 600 to 900 nm when the peak wavelength at 470 nm was considered as the basic value, 1.

[2] = system: choroidal neoplastic vessels; experiment: Occlusion of choroidal neoplastic vessels by PDT, histological findings 24 hours after laser irradiation; assay type: in vivo, rats (Long Evance Rats); conditions: for Occlusion of choroidal neoplastic vessels: 16 mg/kg
Description: (§1) The following experiments were performed to investigate the optimal treatment parameters (timing of laser irradiation after dosing of the compound; laser irradiation dosage) for selective occlusion of choroidal neoplastic vessels by PDT using the compound of the present invention and a diode laser (produced by Hamamatsu Photonics; wavelength: 672 nm).
(§2) Photocoagulation was induced in rats (Long Evance Rats weighing 200-300 g) by Argon green laser irradiation (irradiation diameter: 100 μm, 140 mW, 0.1 sec) near the retinal papilla on funduc oculi. Ten days after photocoagulation, fundus photographs and fluorescein angiographs were taken and the animals showing development of choroidal neovascularization were used for experiments at the 11th day.
(§3) The compound of the present invention was administered via the tail vein at a dose of 16 mg/kg. After administration, time course distribution of the compound in the eyeball tissues was observed by fluorescence microscopy.
(§4) Laser irradiation was done by using the above-mentioned diode laser. The laser beam was confirmed to extend in the range of 500 μm in diameter on the retinal surface. Duration of irradiation was 4 minutes and the irradiation intensity varied at 30.6, 91.7, 152.9 and 244.9 mW/cm^2 on the retinal surface. These values correspond to 7.4, 22.0, 36.7 and 58.8 J/cm^2, respectively.
(§5) Assessment of the PDT using the compound of the present invention was made based on the fundus photographs taken with a fundus camera (produced by Jenesis Kowa) at 1 hour and 24 hours after laser irradiation. Occlusion of the neoplastic vessels and damage to the surrounding tissues were investigated by fluorescein antiography and histological examinations to assess the selectivity of the therapeutic effect.

[3] = system: retinal capillaries; experiment: Occlusion of retinal capillaries by PDT, histological findings 24 hours after laser irradiation; assay type: in vivo, rats (Long Evance Rats); conditions: 16 mg/kg
Description: as §1, §2, §3, §4, §5

[4] = system: choriocapillaris; experiment: Occlusion of choriocapillaris by PDT, histological findings 24 hours after laser irradiation; assay type: in vivo, rats (Long Evance Rats); conditions: 16 mg/kg
Description: as §1, §2, §3, §4, §5

[5] = system: choroidal arteries and veins; experiment: Occlusion of choroidal arteries and veins by PDT, histological findings 24 hours after laser irradiation; assay type: in vivo, rats (Long Evance Rats); conditions: 16 mg/kg
Description: as §1, §2, §3, §4, §5

[6] = Preliminary experiments: blood half-life after intravenous administration; assay type: in vivo; conditions: rats and rabbits
[7] = system: albumin; experiment: Albumin test (change in UV absorption spectrum in mixture with albumin); assay type: binding
Text: (§6) When compound (I) was examined by albumin test [that is, a convenient test method for evaluating the affinity to cancerous tissues, in which a chlorin derivative is examined on the change in ultraviolet (UV) absorption spectrum in a mixture form with albumin and in which one of the present inventors has found a certain rule] and dancyl methionine test [that is, a convenient test method for evaluating the strength of the photoreactivity by thin layer chromatography (TLC) or high performance liquid chromatography (HPLC)]

[8] = Dancyl methionine test (photoreactivity by TLC or HPLC)
Text: as §6

[9] = Water solubility; assay type: physicochemical
[10] = Stability in vivo and in vitro
[11] = Phosphorescence life time; assay type: physicochemical
[12] = system: cancerous tissues; experiment: Accumulability to cancerous tissues and excretion from normal tissues (general findings); assay type: in vivo
[13] = 7.4 J/cm^2, irradiation 60 min after administration
[14] = 7.4 J/cm^2, irradiation immediately after administration
[15] = 22.0 J/cm^2, irradiation 60 min after administration
[16] = 22.0 J/cm^2, irradiation 120 min after administration
[17] = 22.0 J/cm^2, irradiation 240 min after administration
[18] = 22.0 J/cm^2, irradiation immediately after administration
[19] = 36.7 J/cm^2, irradiation 60 min after administration
[20] = 36.7 J/cm^2, irradiation 120 min after administration
[21] = 36.7 J/cm^2, irradiation 240 min after administration
[22] = 36.7 J/cm^2, irradiation immediately after administration
[23] = 58.8 J/cm^2, irradiation 60 min after administration
[24] = 58.8 J/cm^2, irradiation 120 min after administration
[25] = 58.8 J/cm^2, irradiation 240 min after administration
[26] = 58.8 J/cm^2, irradiation immediately after administration
[27] = 7.4 J/cm^2, irradiation 120 min after administration
[28] = 7.4 J/cm^2, irradiation 240 min after administration

## C=Cc1c(C)c2cc3nc(cc4[nH]c(cc5nc(cc1[nH]2)C(C)=C5CCC(=O)NC(CC(=O)O)C(=O)O)c(CCC(=O)NC(CC(=O)O)C(=O)O)c4C)C(C)(O)C3=CC=NO (stereo not shown) [Compound (I)]
[1]; 3 hr
  Kp at 3 h: 1.48
[1]; 6 hr
  Kp at 6 h: 1.18
[1]; 12 hr
  Kp at 12 h: 2.37
[2]; [13]
  Occlusion of choroidal neoplastic vessels: Closed
[2]; [14]
  Occlusion of choroidal neoplastic vessels: Closed
[2]; 7.4 J/cm^2 immediately after administration
  selective occlusion of choroidal neoplastic vessels and choriocapillaris: selective occlusion of the choroidal neoplastic vessels and choriocapillaris was achieved without causing serious damage to the retinal capillaries and choroidal arteries and veins
[2]; [15]
  Occlusion of choroidal neoplastic vessels: Closed
[2]; [16]
  Occlusion of choroidal neoplastic vessels: Closed
[2]; [17]
  Occlusion of choroidal neoplastic vessels: Closed
[2]; [18]
  Occlusion of choroidal neoplastic vessels: Closed
[2]; 22.0 J/cm^2 at 2-4 hours after administration
  selective occlusion of choroidal neoplastic vessels and choriocapillaris: selective occlusion of the choroidal neoplastic vessels and choriocapillaris was achieved without causing serious damage to the retinal capillaries and choroidal arteries and veins
[2]; [19]
  Occlusion of choroidal neoplastic vessels: Closed
[2]; [20]
  Occlusion of choroidal neoplastic vessels: Closed
[2]; [21]
  Occlusion of choroidal neoplastic vessels: Closed
[2]; [22]
  Occlusion of choroidal neoplastic vessels: Closed
[2]; [23]
  Occlusion of choroidal neoplastic vessels: Cldsed
[2]; [24]
  Occlusion of choroidal neoplastic vessels: Closed
[2]; [25]
  Occlusion of choroidal neoplastic vessels: Closed
[2]; [26]
  Occlusion of choroidal neoplastic vessels: Closed
[3]; [13]
  Occlusion of retinal capillaries: Closed
[3]; [27]
  Occlusion of retinal capillaries: Open
[3]; [28]
  Occlusion of retinal capillaries: Open
[3]; [15]
  Occlusion of retinal capillaries: Closed
[3]; [16]
  Occlusion of retinal capillaries: Open
[3]; [17]
  Occlusion of retinal capillaries: Open
[3]; [18]
  Occlusion of retinal capillaries: Closed
[3]; [19]
  Occlusion of retinal capillaries: Closed
[3]; [20]
  Occlusion of retinal capillaries: Closed
[3]; [21]
  Occlusion of retinal capillaries: Closed
[3]; [22]
  Occlusion of retinal capillaries: Closed
[3]; [23]
  Occlusion of retinal capillaries: Closed
[3]; [24]
  Occlusion of retinal capillaries: Closed
[3]; [25]
  Occlusion of retinal capillaries: Closed
[3]; [26]
  Occlusion of retinal capillaries: Closed
[4]; [13]
  Occlusion of choriocapillaris: Closed
[4]; [27]
  Occlusion of choriocapillaris: Open
[4]; [28]
  Occlusion of choriocapillaris: Open
[4]; [14]
  Occlusion of choriocapillaris: Closed
[4]; [15]
  Occlusion of choriocapillaris: Closed
[4]; [16]
  Occlusion of choriocapillaris: Closed
[4]; [17]
  Occlusion of choriocapillaris: Closed
[4]; [18]
  Occlusion of choriocapillaris: Closed
[4]; [19]
  Occlusion of choriocapillaris: Closed
[4]; [20]
  Occlusion of choriocapillaris: Closed
[4]; [21]
  Occlusion of choriocapillaris: Closed
[4]; [22]
  Occlusion of choriocapillaris: Closed
[4]; [23]
  Occlusion of choriocapillaris: Closed
[4]; [24]
  Occlusion of choriocapillaris: Closed
[4]; [25]
  Occlusion of choriocapillaris: Closed
[4]; [26]
  Occlusion of choriocapillaris: Closed
[5]; [13]
  Occlusion of choroidal arteries and veins: Closed
[5]; [27]
  Occlusion of choroidal arteries and veins: Open
[5]; [28]
  Occlusion of choroidal arteries and veins: Open
[5]; [15]
  Occlusion of choroidal arteries and veins: Closed
[5]; [16]
  Occlusion of choroidal arteries and veins: Open
[5]; [17]
  Occlusion of choroidal arteries and veins: Open
[5]; [19]
  Occlusion of choroidal arteries and veins: Closed
[5]; [20]
  Occlusion of choroidal arteries and veins: Open
[5]; [21]
  Occlusion of choroidal arteries and veins: Open
[5]; [22]
  Occlusion of choroidal arteries and veins: Closed
[5]; [23]
  Occlusion of choroidal arteries and veins: Closed
[5]; [24]
  Occlusion of choroidal arteries and veins: Open
[5]; [25]
  Occlusion of choroidal arteries and veins: Open
[5]; [26]
  Occlusion of choroidal arteries and veins: Closed
[6]; after 24 hours, intravenous
  compound in blood: undetectable in blood after 24 hours
[6]; blood, intravenous administration
  half-life: 30 min
[7]
  affinity to albumin: good affinity to albumin
  transferability to cancerous tissues (albumin test): excellent transferability to cancerous tissues
[8]
  photosensitivity (dancyl methionine test): strong photosensitivity
[8]; dancyl methionine test
  cell killing effect when exposed to light: good cell killing effect when exposed to light
[9]
  water solubility: good water solubility
[9]; water, aqueous solution, read-out: high concentration solution (water solubility)
  solubility: 50 mg/mL (≈ 59.5 mM)
[10]
  stability in vivo and in vitro: high stability in vivo, as well as in vitro
[11]
  phosphorescence life time: long phosphorescence life time
[12]; compared with compound of formula (II)
  accumulability to cancerous tissues: remarkably superior accumulability to cancerous tissues as compared with the compound of formula (II)
[12]; in vivo
  excretion from normal tissues: quick excretion property from normal tissues
